The series in a line: Water solubility of the dyes (excess dye heated at 50 °C in water, cooled to 20 °C, filtered, determined spectroscopically). The series is classed as physicochemical. To be noted: after heating at 50 °C for one hour. As to the method: The solubilities of the dyes according to the invention were determined as follows:
An excess of dye was heated at 50° C. in water with stirring for one hour. The mixture was then cooled down to 20 ° C. and filtered, and the dye content of the clear solution was determined spectroscopically.

`CCN(c1nc(Cl)nc(Nc2ccc(N=Nc3cc4c(S(=O)(=O)O)cc(S(=O)(=O)O)cc4cc3S(=O)(=O)O)c(NC(N)=O)c2)n1)c1cc(S(=O)(=O)O)ccc1C` [dye 1, reference compound] yielded a solubility of 11 g per 100 ml.
For `CCN(c1nc(Cl)nc(Nc2cc(NC(C)=O)c(N=Nc3cc(S(=O)(=O)O)c4cccc(S(=O)(=O)O)c4c3)cc2OC)n1)c1cc(S(=O)(=O)O)ccc1C` [dye 5, reference compound] the value was 17 g per 100 ml; for `COc1cc(N=Nc2cc(S(=O)(=O)O)c3cccc(S(=O)(=O)O)c3c2)c(C)cc1Nc1nc(NCCS(=O)(=O)O)nc(SCCO)n1` [Compound 101], 40 g per 100 ml.
Under `COc1cc(N=Nc2cc(S(=O)(=O)O)c3cccc(S(=O)(=O)O)c3c2)c(C)cc1Nc1nc(NCCS(=O)(=O)O)nc(SCC(=O)O)n1` [Compound 102] stands 54 g per 100 ml; under `COc1cc(N=Nc2cc(S(=O)(=O)O)c3cccc(S(=O)(=O)O)c3c2)c(C)cc1Nc1nc(O)nc(NCCS(=O)(=O)O)n1` [Compound 100], 31 g per 100 ml.
